What was measured:
aldose reductase [1] = target: T1, aldose reductase (Rattus norvegicus, UniProt P07943); assay: in vivo inhibition of aldose reductase in streptozotocin diabetic rats (residual sorbitol levels in eye lenses and/or sciatic nerves); conditions: dosed daily for one, two or five days, read-out: ED50 in the in vivo test
T1 construct: the eye lenses and/or sciatic nerves are removed; from tissue; host or cells: rat eye lenses and/or sciatic nerves (in vivo, streptozotocin-diabetic rats)
Experimental: Rats are made diabetic (as evidenced by severe glucosuria being present) by dosing with streptozotocin. The animals are then dosed daily with the test compound for one, two or five days. The animals are then sacrificed 2-6 hours after the final dose and the eye lenses and/or sciatic nerves are removed. After a standard work-up procedure the residual sorbitol levels in each tissue are determined by gas liquid chromatography after conversion to the polytrimethylsilyl derivatives. Inhibition of aldose reductase in vivo can then be assessed by comparing the residual sorbitol levels in tissues from the dosed diabetic group of rats with those of an undosed group of diabetic rats and an undosed, normal group of rats.

aldose reductase [2] = target: T2, aldose reductase (Bos taurus, UniProt P16116); assay: in vitro inhibition of partially purified aldose reductase isolated from bovine lenses (spectrophotometric); type: biochemical; conditions: read-out: IC50 in the in vitro test
T2 construct: isolated in known manner from bovine lenses; from tissue; host or cells: bovine lenses
Text: Thus, in a standard procedure partially purified aldose reductase is isolated in known manner from bovine lenses. The percentage inhibition of this enzyme's ability in vitro to catalyse the reduction of aldoses to polyhydric alcohols, and particularly to reduce glucose or sorbitol, caused by a test compound can then be determined using standard spectrophotometric methods.

Compound: O=[N+]([O-])CS(=O)(=O)c1cccs1 [Example 1, 2-(nitromethylsulphonyl)thiophene]
- ED50 (aldose reductase [1]): 2.1 mg/kg
- IC50 (aldose reductase [2]): 0.054 µM
